Experimental data from US8486996B2, “Aroylfuranes and aroylthiophenes” (Basilea Pharmaceutica AG, priority 2006, dated 2013).
Where two headings read alike, the source gives them in different places.

Assays:
[1] = system: H460; experiment: Colony Forming Units (read-out 6 days), H460; type: cell-based, human; settings: Homo sapiens, NCI-H460, 144 h, colonies containing more than 30 cells, read-out: Colony Forming Units, score based on IC50, H460
Procedure, shortened: (§1)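 Cells seeded at 100-150 per well and left to attach for 48 h before compound addition (0.001 μM-3 μM; DMSO controls). Incubated 5-7 days under culture conditions; colonies of more than 30 cells counted by microscope.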

[2] = system: tumor cells; experiment: Mitochondrial membrane potential, JC-1 (read-out 48 h); type: cell-based; settings: JC-1, 48 h
Procedure, shortened: (§2)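 Tumor cells were treated with test compounds (adherent cells after 24 h of attachment, suspension cells immediately), medium holding up to 5% DMSO. After 48 h, JC-1 (2-5 μg/ml in added medium) was applied for 30 min. Fluorescence microscopy (FITC/TRITC filters) scored the fraction of cells with dissipated mitochondrial membrane potential as categories A-D.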

[3] = as above; type: cell-based; settings: PBL, JC-1, 48 h
Procedure, shortened: as §2

[4] = system: tumor cells; experiment: MTS proliferation assay (72 h read-out); type: cell-based
Procedure, shortened: (§3)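 Viability was read by MTS absorbance at 492 nm after 3 h with reagent. Before that, cells plated a day earlier at 1.5×10^3–10^4 per well had been incubated with test compound at final concentrations of 0.001–10 μM for 72 h; activity is given as category scores A–D.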

[5] = MTS proliferation assay (72 h read-out); type: cell-based; settings: Homo sapiens, MRC5 cells
Procedure, shortened: as §3

[6] = system: HeLa; experiment: Colony Forming Units (read-out 6 days), HeLa; type: cell-based, human; settings: Homo sapiens, 144 h, colonies containing more than 30 cells, read-out: Colony Forming Units, score based on IC50, HeLa
Procedure, shortened: as §1

[7] = system: tumor cells; experiment: Hoechst 33342 nuclear staining (48 h read-out); type: cell-based
Procedure, shortened: (§4)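 Adherent cells pre-spread 24 h before dosing, suspension cells dosed at seeding; compounds at 0.001 μM-10 μM final, 48 h at culture conditions. Hoechst 33342 (2-5 μg/ml) added for 30 min, then fluorescence microscopy scoring of apoptotic nuclear fraction and apoptosis-specific morphology, reported as scores A-D.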

[8] = Hoechst 33342 nuclear staining (48 h read-out); type: cell-based
Procedure, shortened: as §4

[9] = Homo sapiens, HeLa cells, read-out: Mitochondrial membrane potential (read-out 48 h) HeLa
[10] = Homo sapiens, Jurkat cells, read-out: Mitochondrial membrane potential (read-out 48 h) Jurkat
[11] = Homo sapiens, MCF7 cells, read-out: Mitochondrial membrane potential (read-out 48 h) MCF7
[12] = Jily cells, read-out: Mitochondrial membrane potential (read-out 48 h) Jily
[13] = Homo sapiens, HT-1080, HT1080 cells, read-out: MTS proliferation assay IC50, HT1080
[14] = Homo sapiens, HeLa cells, read-out: MTS proliferation assay IC50, HeLa
[15] = Homo sapiens, Jurkat cells, read-out: MTS proliferation assay IC50, Jurkat
[16] = Jily cells, read-out: MTS proliferation assay IC50, Jily
[17] = Homo sapiens, HeLa cells, read-out: Hoechst 33342 nuclear staining EC50, HeLa
[18] = Homo sapiens, Jurkat cells, read-out: Hoechst 33342 nuclear staining EC50, Jurkat
[19] = Jily cells, read-out: Hoechst 33342 nuclear staining EC50, Jily
[20] = Homo sapiens, MRC5 cells, read-out: Hoechst 33342 nuclear staining EC50, MRC5
[21] = PBL, read-out: Hoechst 33342 nuclear staining EC50, PBL

Compound: CCOc1ccc(OC)cc1C(=O)c1oc2ccc(Cl)cc2c1N [Example 12]
- IC50 [1]: < 10 nM
- EC50 [2, 9]: 10 to 100 nM
- EC50 [2, 10]: < 10 nM
- EC50 [2, 11]: 10 to 100 nM
- EC50 [2, 12]: < 10 nM
- EC50 [3]: > 1000 nM
- IC50 [4, 13]: < 10 nM
- IC50 [4, 14]: 10 to 100 nM
- IC50 [4, 15]: < 10 nM
- IC50 [4, 16]: < 10 nM
- IC50 [5]: < 10 nM
- IC50 [6]: 10 to 100 nM
- melting point: 124 to 125 °C
- EC50 [7, 17]: < 10 nM
- EC50 [7, 18]: < 10 nM
- EC50 [7, 19]: < 10 nM
- EC50 [8, 20]: 100 to 1000 nM

Compound: CCCOc1ccc(OC)cc1C(=O)c1oc2ccc(Cl)cc2c1N [Example 14]
- IC50 [1]: 10 to 100 nM
- EC50 [2, 9]: 10 to 100 nM
- EC50 [2, 10]: 10 to 100 nM
- EC50 [2, 11]: 10 to 100 nM
- EC50 [2, 12]: 10 to 100 nM
- EC50 [3]: > 1000 nM
- IC50 [4, 13]: 10 to 100 nM
- IC50 [4, 14]: 10 to 100 nM
- IC50 [4, 15]: < 10 nM
- IC50 [4, 16]: < 10 nM
- IC50 [5]: 10 to 100 nM
- IC50 [6]: 10 to 100 nM
- melting point: 95 to 97 °C
- EC50 [7, 17]: 10 to 100 nM
- EC50 [7, 18]: 10 to 100 nM
- EC50 [7, 19]: 10 to 100 nM
- EC50 [8, 20]: 10 to 100 nM

Compound: COc1ccc(OC(C)C)c(C(=O)c2oc3ccc(Cl)cc3c2N)c1 [Example 15]
- IC50 [1]: 10 to 100 nM
- EC50 [2, 9]: 100 to 1000 nM
- EC50 [2, 10]: 10 to 100 nM
- EC50 [2, 11]: 100 to 1000 nM
- EC50 [2, 12]: 100 to 1000 nM
- EC50 [3]: > 1000 nM
- IC50 [4, 13]: 10 to 100 nM
- IC50 [4, 14]: 100 to 1000 nM
- IC50 [4, 15]: 10 to 100 nM
- IC50 [4, 16]: 10 to 100 nM
- IC50 [5]: 10 to 100 nM
- IC50 [6]: 10 to 100 nM
- melting point: 131 to 132 °C
- EC50 [7, 17]: 100 to 1000 nM
- EC50 [7, 18]: 10 to 100 nM
- EC50 [7, 19]: 10 to 100 nM
- EC50 [8, 20]: 100 to 1000 nM

Compound: CCOc1ccc(F)cc1C(=O)c1oc2ccc(Cl)cc2c1N [Example 18]
- IC50 [1]: < 10 nM
- EC50 [2, 9]: < 10 nM
- EC50 [2, 10]: < 10 nM
- EC50 [2, 11]: < 10 nM
- EC50 [2, 12]: < 10 nM
- EC50 [3]: > 1000 nM
- IC50 [4, 13]: < 10 nM
- IC50 [4, 14]: < 10 nM
- IC50 [4, 15]: < 10 nM
- IC50 [4, 16]: < 10 nM
- IC50 [5]: < 10 nM
- IC50 [6]: < 10 nM
- melting point: 132 to 134 °C
- EC50 [7, 17]: < 10 nM
- EC50 [7, 18]: < 10 nM
- EC50 [7, 19]: < 10 nM
- EC50 [8, 20]: < 10 nM
- EC50 [8, 21]: > 1000 nM

Compound: CCOc1ccc(F)cc1C(=O)c1oc2nc(C)ccc2c1N [Example 29]
- IC50 [1]: 10 to 100 nM
- EC50 [2, 9]: 10 to 100 nM
- EC50 [2, 10]: 10 to 100 nM
- EC50 [2, 11]: 10 to 100 nM
- EC50 [2, 12]: 10 to 100 nM
- EC50 [3]: > 1000 nM
- IC50 [4, 13]: < 10 nM
- IC50 [4, 14]: 10 to 100 nM
- IC50 [4, 15]: < 10 nM
- IC50 [4, 16]: < 10 nM
- IC50 [5]: 10 to 100 nM
- IC50 [6]: 10 to 100 nM
- melting point: 152 to 156 °C
- EC50 [7, 17]: 10 to 100 nM
- EC50 [7, 18]: 10 to 100 nM
- EC50 [7, 19]: 10 to 100 nM
- EC50 [8, 20]: 100 to 1000 nM
- EC50 [8, 21]: > 1000 nM
